In patent US20230181482A1, “LIPIDS FOR DELIVERY OF NUCLEIC ACID SEGMENTS” (AstraZeneca AB, priority 2021, published 2023):

Experiments:
[1] = mRNA encapsulation efficiency of LNP formulations (Quant-it Ribogreen assay with Triton-X100); type: physicochemical; settings: N/P ratio 3:1, DMPE-PEG2000
Method: (§1) A solution of eGFP mRNA (purchased from TriLink Biotechnologies) in citrate buffer was prepared by mixing mRNA dissolved in MilliQ-water, 100 mM citrate buffer (pH 3) and MilliQ-water to give a solution of 50 mM citrate. Lipid solution in ethanol (99.5%) was prepared with four different lipid components: ionizable lipid (see Table 1); cholesterol (Sigma-Aldrich); DSPC (distearoyl phosphatidyl choline, Avanti Polar Lipids Inc); and a polymer-conjugated lipid (see Table 1). The ratio of lipids in all experiments was ionizable lipid/cholesterol/DSPC/polymer-conjugated lipid (50/38.5/10/1.5 mol %). The total concentration of lipids in all experiments was 12.5 mM.
(§2) The mRNA and lipid solutions were mixed in a NanoAssemblr (Precision Nanosystems, Vancouver, BC, Canada) microfluidic mixing system at a mixing ratio of Aq:EtOH=3:1 and a constant flow rate of 12 mL/min. The mRNA in citrate buffer solution was prepared such that, at the time of mixing the ratio between the nitrogen atoms on the ionizable lipid and phosphorus atoms (N/P ratio) on the mRNA chain was either 3:1 or 6:1 (see Table 1).
The final mRNA concentration and encapsulation efficiency percentage (% EE) was measured by Quant-it Ribogreen Assay Kit (ThermoFischer Scientific Inc.) using Triton-X100 to disrupt the LNPs. The mRNA encapsulation efficiency was determined according to the following equation: […]

[2] = LNP particle size by dynamic light scattering (Zetasizer Nano ZS); type: physicochemical; settings: N/P ratio 3:1, DMPE-PEG2000
Method: as §1, §2
The first 0.2-0.35 mL and the last 0.05-0.1 mL of the LNP suspension prepared were discarded while the rest of the volume was collected as the sample fraction. The size of the mRNA lipid nanoparticles was determined by dynamic light scattering measurements using a Zetasizer Nano ZS from Malvern Instruments Ltd, giving directly the z-average particle diameter. The number-weighted particle size distributions and averages were calculated using a particle refractive index of 1.45.

Female BALB/c mice = assay: eGFP expression in the liver at 24 hours after intravenous administration of LNP formulations to mouse (ELISA); type: in vivo; settings: LNP N/P 3:1, DMPE-PEG2000
Text: Female BALB/c mice were purchased (SPF (Beijing) Laboratory Animal Technology Co. Ltd.) and on arrival were caged in groups of 4 on corncob bedding, with normal diet and were provided tap drinking water ad libitum that was purified and autoclaved before being offered to the animal. The environment was maintained at a target temperature of […] and relative humidity of 40-80%, with a 12-hour light/dark cycle. Animals were acclimatised to the housing conditions for at least 7 days prior to any experimental procedures and were approximately 6-8 weeks of age at the start of dosing
Animals were assigned to respective groups such that the mean body weights for each treatment groups will be equal. N=4 for each treatment group.
Formulations 1, 3, 4, 5, and 6 from Example 58 were each dosed intravenously: Each mouse was removed from its cage and restrained, and then dosed with a slow IV bolus of a formulation in the lateral tail vein at a dose […] of 0.3 mg/kg.
All animals were sacrificed 24 hours after dosing and flowing blood sampling the liver for the animals dosed by the IV route and the liver and muscle at the dose site for the IM dosed animals were harvested for eGFP analysis by ELISA.
Additional LNP formulations were prepared according to the procedures described in Example 46. These formulations were tested using the same protocol as described herein. The results of eGFP expression in the liver at 24 hours after intravenous administration of the formulations were summarized in Tables 3, 4, 5 and 6 below.

| SMILES | % EE ([1]; Table 5) [%] | <d>N (nm) ([2]; Table 5) | <d>Z (nm) ([2]; Table 5) | Liver eGFP protein (ng/g tissue) (Female BALB/c mice; Table 5, 0.3 mg/kg) | % EE ([1]; Table 6) [%] | <d>N (nm) ([2]; Table 6) | <d>Z (nm) ([2]; Table 6) | Liver eGFP protein (ng/g tissue) (Female BALB/c mice; Table 6, 0.3 mg/kg) | further results |
| --- | --- | --- | --- | --- | --- | --- | --- | --- | --- |
| CCCCCCC(CCCCCC)COC(=O)CCCCCCCC(CCCCCCCC(=O)OCC(CCCCCC)CCCCCC)NC1CC2(COC2)C1 [Compound 34, Bis(2-hexyloctyl) 9-((2-oxaspiro[3.3]heptan-6-yl)amino)heptadecanedioate] |  |  |  |  |  |  |  |  | % EE ([1]; Table 4): 96%; <d>N (nm) ([2]; Table 4): 51 nm; <d>Z (nm) ([2]; Table 4): 68 nm; Liver eGFP protein (ng/g tissue) (Female BALB/c mice; Table 4, 0.3 mg/kg): 11015.4 ng/g tissue |
| CCCCCCCCC(C)OC(=O)CCCCCCCC(CCCCCCCC(=O)OC(CCCCCCCC)CCCCCCCC)NCC1CCOCC1 (stereo not shown) [Compound 35, 1-(decan-2-yl) 17-(heptadecan-9-yl) 9-(((tetrahydro-2H-pyran-4-yl)methyl)amino)heptadecanedioate] | 95 | 59 | 77 | 5974.6 |  |  |  |  |  |
| CCCCCCCCC(C)OC(=O)CCCCCCCC(CCCCCCCC(=O)OC(CCCCCCCC)CCCCCCCC)NCC1CCOC1 (stereo not shown) [Compound 36, 1-(decan-2-yl) 17-(heptadecan-9-yl) 9-(((tetrahydrofuran-3-yl)methyl)amino)heptadecanedioate] | 96 | 57 | 73 | 6133.5 |  |  |  |  |  |
| CCCCCCCCC(C)OC(=O)CCCCCCCC(CCCCCCCC(=O)OC(CCCCCCCC)CCCCCCCC)NCC1COC1 (stereo not shown) [Compound 37, 1-(decan-2-yl) 17-(heptadecan-9-yl) 9-((oxetan-3-ylmethyl)amino)heptadecanedioate] | 93 | 47 | 60 | 1225.5 |  |  |  |  |  |
| CCCCCCCCC(CC)OC(=O)CCCCCCCC(CCCCCCCC(=O)OC(CCCCCCCC)CCCCCCCC)NC1CC2(COC2)C1 (stereo not shown) [Compound 38, 1-(heptadecan-9-yl) 17-(undecan-3-yl) 9-((2-oxaspiro[3.3]heptan-6-yl)amino)heptadecanedioate] | 97 | 61 | 76 | 9730.7 |  |  |  |  |  |
| CCCCCCCCC(CC)OC(=O)CCCCCCCC(CCCCCCCC(=O)OC(CCCCCCCC)CCCCCCCC)NCC1CCOCC1 (stereo not shown) [Compound 39, 1-(heptadecan-9-yl) 17-(undecan-3-yl) 9-(((tetrahydro-2H-pyran-4-yl)methyl)amino)heptadecanedioate] | 97 | 55 | 69 | 3383.8 |  |  |  |  |  |
| CCCCCCCCC(CC)OC(=O)CCCCCCCC(CCCCCCCC(=O)OC(CCCCCCCC)CCCCCCCC)NCC1CCOC1 (stereo not shown) [Compound 40, 1-(heptadecan-9-yl) 17-(undecan-3-yl) 9-(((tetrahydrofuran-3-yl)methyl)amino)heptadecanedioate] | 97 | 53 | 70 | 3658.4 |  |  |  |  |  |
| CCCCCCCCC(CC)OC(=O)CCCCCCCC(CCCCCCCC(=O)OC(CCCCCCCC)CCCCCCCC)NCC1COC1 (stereo not shown) [Compound 41, 1-(heptadecan-9-yl) 17-(undecan-3-yl) 9-((oxetan-3-ylmethyl)amino)heptadecanedioate] | 98 | 54 | 69 | 7390.2 |  |  |  |  |  |
| CCCCCCCCC(CCCCCCCC)OC(=O)CCCCCCCC(CCCCCCCC(=O)OCCC(C)CCCCCC)NC1CC2(COC2)C1 (stereo not shown) [Compound 42, 1-(heptadecan-9-yl) 17-(3-methylnonyl) 9-((2-oxaspiro[3.3]heptan-6-yl)amino)heptadecanedioate] | 94 | 66 | 84 | 1868.2 |  |  |  |  |  |
| CCCCCCCCC(CCCCCCCC)OC(=O)CCCCCCCC(CCCCCCCC(=O)OCCC(C)CCCCCC)NCC1CCOCC1 (stereo not shown) [Compound 43, 1-(heptadecan-9-yl) 17-(3-methylnonyl) 9-(((tetrahydro-2H-pyran-4-yl)methyl)amino)heptadecanedioate] | 95 | 62 | 79 | 2590.9 |  |  |  |  |  |
| CCCCCCCCC(CCCCCCCC)OC(=O)CCCCCCCC(CCCCCCCC(=O)OCCC(CC)CCCCCC)NC1CC2(COC2)C1 (stereo not shown) [Compound 44, 1-(3-ethylnonyl) 17-(heptadecan-9-yl) 9-((2-oxaspiro[3.3]heptan-6-yl)amino)heptadecanedioate] | 97 | 65 | 80 | 6582.0 |  |  |  |  |  |
| CCCCCC(CCCCC)CCOC(=O)CCCCCC(CCCCCC(=O)OCCC(CCCCC)CCCCC)NC1CCOCC1 [Compound 45, bis(3-pentyloctyl) 7-((tetrahydro-2H-pyran-4-yl)amino)tridecanedioate] |  |  |  |  |  |  |  |  | % EE ([1]; Table 4): 88%; <d>N (nm) ([2]; Table 4): 60 nm; <d>Z (nm) ([2]; Table 4): 75 nm; Liver eGFP protein (ng/g tissue) (Female BALB/c mice; Table 4, 0.3 mg/kg): 9082.2 ng/g tissue |
| CCCCCCCCC(CCCCCCCC)OC(=O)CCCCCCCC(CCCCCCCC(=O)OC(CC)CCCCC)NC1CC2(COC2)C1 (stereo not shown) [Compound 46, 1-(heptadecan-9-yl) 17-(octan-3-yl) 9-((2-oxaspiro[3.3]heptan-6-yl)amino)heptadecanedioate] |  |  |  |  | 93 | 54 | 73 | 15932.1 |  |
| CCCCCCCCC(CCCCCCCC)OC(=O)CCCCCCCC(CCCCCCCC(=O)OC(CC)CCCC)NCC1CCOC1 (stereo not shown) [Compound 47, 1-(heptadecan-9-yl) 17-(heptan-3-yl) 9-(((tetrahydrofuran-3-yl)methyl)amino)heptadecanedioate] |  |  |  |  | 89 | 62 | 82 | 13883.6 |  |
| CCCCCCCCC(CCCCCCCC)OC(=O)CCCCCCCC(CCCCCCCC(=O)OC(C)CCCCC)NCC1CCOC1 (stereo not shown) [Compound 48, 1-(heptadecan-9-yl) 17-(heptan-2-yl) 9-(((tetrahydrofuran-3-yl)methyl)amino)heptadecanedioate] |  |  |  |  | 90 | 60 | 80 | 14749.9 |  |
| CCCCCC(CCCCC)CCOC(=O)CCCCCCCCCC(CCCCC(=O)OCCC(CCCCC)CCCCC)NC1CC2(COC2)C1 (stereo not shown) [Compound 49, bis(3-pentyloctyl) 6-((2-oxaspiro[3.3]heptan-6-yl)amino)hexadecanedioate] |  |  |  |  | 94 | 55 | 72 | 3934.6 |  |
| CCCCCCCCC(CCC)OC(=O)CCCCCCCC(CCCCCCCC(=O)OC(CCCCCCCC)CCCCCCCC)NC1CC2(COC2)C1 (stereo not shown) [Compound 50, 1-(dodecan-4-yl) 17-(heptadecan-9-yl) 9-((2-oxaspiro[3.3]heptan-6-yl)amino)heptadecanedioate] |  |  |  |  | 97 | 51 | 65 | 7410.4 |  |
| CCCCCCCCC(CCCCCCCC)OC(=O)CCCCCCCC(CCCCCCCC(=O)OCC1CC1CCCCCC)NCC1COC1 (stereo not shown) [Compound 51, 1-(heptadecan-9-yl) 17-((2-hexylcyclopropyl)methyl) 9-((oxetan-3-ylmethyl)amino)heptadecanedioate] |  |  |  |  | 95 | 53 | 67 | 3473.8 |  |
| CCCCCCCCC(CCCCCCCC)OC(=O)CCCCCCCC(CCCCCCCC(=O)OCC1CC1CCCCCC)NCC1CCOC1 (stereo not shown) [Compound 52, 1-(heptadecan-9-yl) 17-((2-hexylcyclopropyl)methyl) 9-(((tetrahydrofuran-3-yl)methyl)amino)heptadecanedioate] |  |  |  |  | 95 | 55 | 71 | 4701.7 |  |
